Source: patent EP3991729A1, “USE OF AMLEXANOX IN PREPARING ANTI-HEPATITIS VIRUS DRUG” (Marine Biomedical Research Institute Of Qingdao Co., Ltd., priority 2019, dated 2020)
Structures can show the parent of a compound that is named as a salt.

Experiments:
[1] = test system: 293 cells; assay: Cytotoxicity test, MTT assay; format: cell-based; settings: Homo sapiens, HEK293; 1 µM, 72h
Procedure: (§1) […]. Various cells in the logarithmic growth phase were seeded in 96-well plates at 6,000 cells/well and cultured for 24h. […]. The dosage of DMSO in the solvent control group was based on the maximum dose of 0.1% used in the test group, with four duplicate wells for each concentration. Cells were treated with the drug for 72h and then added with 20µL 5 mg/mL MTT, cultured at 37°C for 4h, after added 100 µ L triple solution (10% SDS, 5% isobutanol, 12 mM hydrochloric acid), 96-well cell culture plate was placed in an incubator containing 5% CO2 at 37 ± 1°C overnight. OD value at 570nm was measured on a microplate reader.
(§2) The inhibition rate of tumor cell growth was calculated according to the following formula: Inhibition rate(%) = [(OD570controlwell−OD570dosewell)/OD570controlwell] × 100. [formula]

[2] = test system: A549 cells; assay: Cytotoxicity test, MTT assay; format: cell-based; settings: Homo sapiens, A549; 1 µM, 72h
Procedure: as §1, §2

[3] = test system: HCT-116 cells; assay: Cytotoxicity test, MTT assay; format: cell-based; settings: Homo sapiens, HCT-116; 1 µM, 72h
Procedure: as §1, §2

[4] = test system: Hela cells; assay: Cytotoxicity test, MTT assay; format: cell-based; settings: Homo sapiens, 1 µM, 72h, read-out: Inhibition (%) Hel a
Procedure: as §1, §2

[5] = test system: HepG2 cells; assay: Cytotoxicity test, MTT assay; format: cell-based; settings: Homo sapiens, HepG2; 1 µM, 72h; read-out: Inhibition (%) Hep G2
Procedure: as §1, §2

[6] = test system: Huh7 cells; assay: Cytotoxicity test, MTT assay; format: cell-based; settings: Homo sapiens, Huh-7; 1 µM, 72h; read-out: Inhibition (%) Hu h7
Procedure: as §1, §2

[7] = test system: MCF7 cells; assay: Cytotoxicity test, MTT assay; format: cell-based; settings: Homo sapiens, MCF7; 1 µM, 72h; read-out: Inhibition (%) MC F7
Procedure: as §1, §2

[8] = test system: MKN45 cells; assay: Cytotoxicity test, MTT assay; format: cell-based; settings: Homo sapiens, MKN-45; 1 µM, 72h
Procedure: as §1, §2

[9] = test system: B and T cells; assay: Immune cells in blood of HBV-infected mice, flow cytometry; settings: 530 mg/kg/day, once a day, oral gavage, day 9, Figure 19
Procedure: Six-week-old male C57 mice were rapidly injected with 10µg/mouse of viral genomic DNA (genotype A) by tail vein injection in a short period. Viral infection was established using a venous hypertension model and randomly divided into groups. […] At the same time, a blank control was set up, and oral administration in uninfected mice was equivalent to the model group.
On day 9, mice were sacrificed to collect blood stained with flow antibody after fission red. All cells were treated with anti-FcγRIII/ II (purchased from BD Biosciences) in PBS for 30 min. CD3e-FITC (purchased from BD Biosciences). CD4-PE, CD8a-APC-Vio770, and CD34-FITC (GE). CD19-APC, CD11b-PE-Cyanine7, and CD117-efflor 450 (purchased from eBioscience). After staining, the samples were suspended using 500µL PBS and analyzed by BD Aria III flow cytometer.

SMILES	inhibition at 1 µM [1] [%]	inhibition at 1 µM [2] [%]	inhibition at 1 µM [3] [%]	inhibition at 1 µM [4] [%]	inhibition at 1 µM [5] [%]	inhibition at 1 µM [6] [%]	inhibition at 1 µM [7] [%]	inhibition at 1 µM [8] [%]	effect on immune cells in blood [9]
COc1cccc2c1C(=O)c1c(O)c3c(c(O)c1C2=O)C[C@@](O)(C(=O)CO)C[C@@H]3O[C@H]1C[C@H](N)[C@H](O)[C@H](C)O1 [Adriamyci n Hydrochloride, doxorubicin hydrochloride]	57.9	85.8	71.9	48.8	92.1	76.9	88	39.4	–
Nc1ccn([C@@H]2CS[C@H](CO)O2)c(=O)n1 [lamivudine]	–	–	–	–	–	–	–	–	had some inhibitory effects on immune cells
